Data: patent US20040248211A1, “ICAM-related protein” (priority 1992, published 2004)

Columns and labels:
[1] = tested on: SKW3 cell binding to ICAM-R; experiment: Peptide inhibition of SKW3 cell adhesion to soluble ICAM-R coated plastic; assay type: cell-based, human; conditions: peptide at 1-2 mg/ml; PMA; soluble ICAM-R coated wells
From the text: Based on amino acid sequence alignment with known β1 integrin binding domains in fibronectin and based on epitope mapping of anti-ICAM-R monoclonal antibodies that block cell adhesion (see Table 11 in Example 22), ICAM-R peptides corresponding to potential integrin binding sites were synthesized by Macromolecular Resources (Colorado State University, Fort Collins, Colo.). Four ICAM-R sequences which lie between or at the border of predicted beta strands in domains 1 and 3 of were chosen. Similar but not identical β-strand predictions for ICAM-1 are set out in Staunton et al., Cell, 61: 243-254 (1990). Inhibition was assayed using a system involving cell adhesion to soluble ICAM-R coated plastic. Calcein-labeled cells (see Example 7 Section A above) were incubated with peptide at 1-2 mg/ml for 20 minutes at 25° C. and the cells were transferred to wells of a 96-well plate previously coated with soluble ICAM-R (see Example 10) and containing 10 μg/ml final concentration phorbol 12-myristate 13-acetate (PMA). After 50 minutes, the plate was inverted in PBS for 10 minutes to remove unbound cells. Bound cells were quantitated using a fluorescence concentration analyzer.

Jurkat T cells = experiment: MIP-1 alpha ELISA, Jurkat on co-immobilized antibodies; assay type: cell-based, human; conditions: anti-ICAM-R 10 μg/ml co-immobilized with sub-optimal OKT3; OKT3 = sub-optimal concentration alone
Description: In addition to induction in monocytes, the expression of MIP-1 alpha in the Jurkat T leukemic cell line upon treatment with ICR-5.1, ICR-4.2 or ICR-9.2 was also examined. A sub-optimal dose of anti-CD3 antibody OKT3 (500 ng/ml) in PBS-CMF was plated onto flat-bottomed 96-well polystyrene plates and incubated overnight at 4° C. Then, after removing well contents, monoclonal antibody OKT3, ICR-5.1, ICR-4.2, or ICR-9.2 (10 μg/ml in PBS-CMF) was plated overnight at 4° C. Wells were blocked with 1% BSA in PBS-CMF at 37° C. for 1 hour and then rinsed in PBS-CMF. Jurkat T cells were seeded into wells at 2×10^5/well in RPMI/10%FCS+10 μg/ml polymyxin B—SO4. Cells were incubated in wells for 4, 6, or 8 hours or overnight at 37° C. in 5% CO2. Supernatants were harvested by transferring well contents to round-bottomed 96-well polystyrene plates, harvested by centrifuging for 5 minutes at 1200 rpm and by re-transferring to new round-bottomed plates. MIP-1 alpha release into the cell supernatant was assayed by a specific ELISA for MIP-1 alpha.

human PBL = experiment: Tyrosine phosphorylation in PBL after crosslinking; assay type: cell-based; conditions: soluble antibody 30 ug/ml, goat anti-mouse IgG 100 ug/ml
Description: Human PBL was obtained by Ficoll-Hypaque centrifugation and were incubated for 5 minutes with soluble ICR-4.2, OKT3 or anti-HLA-(1×10^7 cells were incubated with each antibody at 30 ug/ml). The cells were then washed and goat anti-mouse IgG (Cappell) was added to a final concentration of 100 ug/ml. After varying periods of time, the cells were lysed in detergent and lysates were electrophoresed on a 10% acrylamide gel, transferred to blotting paper. Blots were then probed with the anti-phosphotryosine antibody 4G10.

Jurkat T leukemic cells = experiment: F-actin and G-actin cell content; assay type: cell-based, human; conditions: ICR-1.1 without gam
Description: Cellular shape changes (such as cell spreading) as well as T-cell activation are associated with changes in the cytoskeletal actin network manifested by alteration of the ratio of globular actin (G-actin) to filamentous actin (F-actin). To test whether the engagement by ICAM-R antibodies of ICAM-R expressed on Jurkat T leukemic cells would induce changes in cellular actin ratios, studies measuring F-actin and G-actin cell content were carried out by methods known in the art.

HL60 cells = experiment: IL-8 release from HL60; assay type: cell-based, human
Description: Monocytes were isolated by elutriation from peripheral blood of normal donors. […] After blocking free sites, the cells were placed into the wells in medium. […] Those cells plated in wells treated with BSA plus or minus LPS were rounded and not spread. After 8 or 18 hours of incubation at 37° C., the medium was removed and assayed for IL-8 immunoreactivity. […] By 18 hours, IL-8 levels in media from ICR monoclonal antibody wells were much elevated over control levels. […] Similar experiments with monocytic cell lines (U937 and HL60) to determine if ICR monoclonal antibody can induce IL-8 release were conducted. U937 cells responded to each of the ICR monoclonal antibody treated wells by releasing IL-8 into the conditioned medium. […] No detectable morphological changes were detected with the U937 or HL60 cells.

THP-1 cells = experiment: MIP-1 alpha secretion by THP-1 on immobilized soluble LFA-1; assay type: cell-based, human; conditions: background approximately 100 pg/ml
Description: A soluble version of LFA-1, when immobilized onto plastic wells, induced THP-1 cells to secrete approximately […] MIP-1 alpha, whereas background levels were approximately 100 pg/ml.

Substance: ICAM-1 70-74: ICAM-1 domain 1 peptide (DGQST, SEQ ID NO: 25)
- % Inhibition CD18-Dependent Binding (SKW3) [1]: did not inhibit binding

Substance: OKT3: anti-CD3 antibody [reference compound]
- MIP-1 alpha expression relative to BSA background (Jurkat T cells): three-fold
- tyrosine phosphorylation after crosslinking (human PBL): Phosphorylation of substrates were also observed
- time to peak F-actin content (Jurkat T leukemic cells; OKT3 plus gam): ≤ 10 min
- F-actin content (Jurkat T leukemic cells; OKT3 plus goat anti-mouse crosslinker (gam)): rapid, transient increase in F-actin content

Substance: lipopolysaccharide [LPS]
- IL-8 release (HL60 cells): did induce a marked release

Substance: soluble version of LFA-1: soluble version of LFA-1 immobilized onto plastic wells
- MIP-1 alpha secreted (THP-1 cells): approximately 1000 μg/ml
